Marks after values point to notes of the source that are not given here.
Tests used:
fertilized broiler eggs = test: Immunohistochemical analysis of muscle fiber CSA during in ovo myogenesis (Example 1); type: in vivo, chicken; settings: 100 μl 250 mM NR in ovo at 11 d
Protocol: At 11-days of incubation, 60 fertilized broiler eggs were randomly assigned to completely randomized design with a 2×2 factorial arrangement. Factor 1 comprised treatment, with eggs injected with 100 μl of 0.9% sterile saline solution (NRNeg) or 250 mM NR in sterile saline (NRPos). Factor 2 comprised injection location, with treatments injected into the yolk or albumen. Eggs were incubated at 37±3° C. and a relative humidity of 40±2% for 7 days. Humidity was increased to 60±2% at the same temperature for the final 3 days of incubation. Twenty-four hours after hatching, chicks were euthanized by exposure to CO2 and decapitation. Measurements including chick weight and left Pectoralis major weight, length, and depth were taken for analysis. Immunohistochemical analysis was conducted to determine if NR supplementation increased muscle fiber cross-sectional area (CSA) during in ovo myogenesis. There were no Treatment×Location or Treatment and Location main effects for muscle fiber CSA (P>0.06). […] This is desired heavily in meat producing animals.

growing pigs [1] = test: Longissimus lumborum NAD+ content (Example III); type: in vivo, pig
Protocol: (§1) Nine growing pigs were blocked by bodyweight (BW) and placed in metabolism crates. After a 3-day acclimation period, pigs within each BW block were randomly assigned to a treatment (n=3 pigs/treatment). Treatments comprised pigs supplemented 0, 15, or 30 mg/kg BW NR for 7 days. Pigs were allowed ad libitum access to a standard growing diet and water. Treatments were administered daily at 8 a.m. by mixing NR in 20 mL of Karo® dark syrup and orally drenching the pigs. On day 0 and 3 of the trial, muscle biopsies of the LL were taken for NAD+ analysis using standard procedures. At day 7, pigs were transported to the Kansas State University Meats Laboratory and euthanized by a captive penetrating bolt to the brain, followed by exsanguination. Following harvest procedures, 3 g of the LL were collected for NAD+ analysis. Twenty-four hours after harvest, the whole LL not sampled at harvest was removed from the carcass and aged 10 days. After aging, the LL was cut into 6 chops for retail color stability analysis, including 6-day surface oxy- and metmyoglobin percentage, 6-day objective and subjective color panel evaluation, and day 4 and 6 metmyoglobin reducing ability (MRA).

[2] = system: Fertilized broiler eggs (Cobb 500); test: Pectoralis major muscle fiber CSA and density by immunohistochemistry (Example VI); type: in vivo, chicken; settings: hatched chicks
Protocol: The methods of Noel et al. (2016) were followed for immunohistochemistry with modifications. The PM was removed from the tongue depressor, embedded in tissue embedding media (Fisher Scientific), cooled with isopentane chilled liquid nitrogen, and stored at −80° C. until cryosectioning. Ten micrometer-thick cryosections were cut using a Microm 550 cryostat (Thermo Fisher Scientific, Kalamazoo, Mich.) and six cryosection were collected on positively charged slides (Diamond White Glass; Globe Scientific Inc., Paramus, N.J.). Cryosections were incubated in a blocking solution containing 5% horse serum and 0.2% TritonX-100 in Phosphate Buffered Saline (PBS) for 30 min. Slides were incubated for 1 h at room temperature in a primary antibody solution consisting of blocking solution and 1:500 rabbit, α-dystrophin (Thermo Fisher Scientific). Cryosections were washed 3 times for 5 min each in PBS and incubated for an additional 30 min with blocking solution containing 1:1,000 Alexa-Flour 594 goat-anti-rabbit heavy and light chains (Life Technologies, Carlsbad, Calif.). Cryosections were washed again as stated above, 5 μl of 9:1 glycerol in PBS was placed on each section, and slides were coverslipped for imaging. Cryosections were visualized at 200× magnification using a Nikon Elipse TI-U inverted microscope (Nikon Instruments Inc., Melville, N.Y.), a Nikon DS-QiMC digital camera (Nikon Instruments Inc.) was used to photograph cryosections, and an average of 1,000 fibers were analyzed using NIS-Elements imaging software (Basic Research, 3.3; Nikon Instruments Inc.) to determine fiber cross-section area (CSA).

growing pigs [3] = test: Oral NR for 7 days in growing pigs: average daily gain and loin eye area (Example III); type: in vivo, pig
Protocol: as §1

[4] = system: Fertilized broiler eggs (Cobb 500); test: NR concentration on avian embryonic myogenesis, d 19 embryo morphometrics (Example II); type: in vivo, chicken; settings: 100 μl into yolk d 10, d 19 embryos
Protocol: Fertilized broiler eggs (n=60; Cobb 500) were randomly assigned to 1 of 4 treatments: 0.0, 250, 500, or 1,000 mM NR in sterile saline. At day 10 of incubation, 100 μl of treatment solution was injected into the egg yolk. Eggs were incubated at 37±3° C. and a relative humidity of 40±2%. At day 19 of incubation, embryos were euthanized by prolonged exposure to CO2 gas and decapitation. Measurements including: embryo weight; crown-rump length; chest circumference (CC); and left Pectoralis major (PM) weight, length, width, and depth were collected.

SMILES: NC(=O)c1ccc[n+]([C@@H]2O[C@H](CO)[C@@H](O)[C@H]2O)c1 [Nicotinamide riboside, nicotinamide riboside]
- Muscle fiber cross-sectional area (CSA) (fertilized broiler eggs): did not increase
- Day 3 NAD+ change, percent change (growing pigs [1]; 15 mg/kg): 28.55^b,x Percent
- Day 3 NAD+ change, total (growing pigs [1]; 15 mg/kg): 2.10^b pMol/g tissue
- Day 7 NAD+ change, percent change (growing pigs [1]; 15 mg/kg): 35.29^b,x Percent
- Day 7 NAD+ change, total (growing pigs [1]; 15 mg/kg): 2.72^b pMol/g tissue
- NAD+ (growing pigs [1]; 15 mg/kg group, Day 0 (before supplementation)): 7.70 pMol/g tissue
- NAD+ (growing pigs [1]; 15 mg/kg, Day 7): 10.42 pMol/g tissue
- NAD+ (growing pigs [1]; 15 mg/kg, middle column group (Day 3, head not given)): 9.80 pMol/g tissue
- Day 3 NAD+ change, percent change (growing pigs [1]; 30 mg/kg): 6.43^a,b,y Percent
- Day 3 NAD+ change, total (growing pigs [1]; 30 mg/kg): 0.71^a,b,y pMol/g tissue
- Day 7 NAD+ change, percent change (growing pigs [1]; 30 mg/kg): 10.92^a,b,y Percent
- Day 7 NAD+ change, total (growing pigs [1]; 30 mg/kg): 0.93^a,b,y pMol/g tissue
- NAD+ (growing pigs [1]; 30 mg/kg group, Day 0 (before supplementation)): 8.60 pMol/g tissue
- NAD+ (growing pigs [1]; 30 mg/kg, Day 7): 9.53 pMol/g tissue
- NAD+ (growing pigs [1]; 30 mg/kg, middle column group (Day 3, head not given)): 9.31 pMol/g tissue
- PM fiber CSA ([2]; 250 mM NR in ovo at d 10): did not affect
- Muscle fiber density vs saline in the albumen ([2]; 250 mM NR into albumen): not differ
- Increase of PM fiber density ([2]; 250 mM NR into the yolk sac): 45%
- Muscle fiber density vs saline in the yolk ([2]; 250 mM NR into yolk): more
- Loin eye area (LEA) vs 0 mg/kg (growing pigs [3]; 15 mg/kg BW oral daily): did not differ
- Better ADG compared to pigs in the other two treatments (numerical trend) (growing pigs [3]; 30 mg/kg BW oral daily): 4.4%
- Larger loin eyes than pigs fed 0 mg/kg NR (growing pigs [3]; 30 mg/kg BW oral daily): 52%
- Larger loin eyes than pigs fed 15 mg/kg NR (growing pigs [3]; 30 mg/kg BW oral daily): 48%
- Body weight ([4]; 250 mM NR): 46.42 g
- Chest circumference ([4]; 250 mM NR): 6.0^a,b cm
- Crown to rump length ([4]; 250 mM NR): 83.69^a mm
- Head circumference ([4]; 250 mM NR): 5.3^a cm
- Head length ([4]; 250 mM NR): 17.70 mm
- Head width ([4]; 250 mM NR): 15.42 mm
- Organ weight, heart ([4]; 250 mM NR): 0.23 g
- Organ weight, liver ([4]; 250 mM NR): 0.74 g
- Pectoralis major length ([4]; 250 mM NR): 16.73^b mm
- Pectoralis major maximum thickness ([4]; 250 mM NR): 2.56^b mm
- Pectoralis major weight ([4]; 250 mM NR): 0.13^a,b g
- Pectoralis major width ([4]; 250 mM NR): 4.90^a,b mm
- Body weight ([4]; 500 mM NR): 46.25 g
- Chest circumference ([4]; 500 mM NR): 6.3^b cm
- Crown to rump length ([4]; 500 mM NR): 85.14^a mm
- Head circumference ([4]; 500 mM NR): 5.6^b cm
- Head length ([4]; 500 mM NR): 17.60 mm
- Head width ([4]; 500 mM NR): 15.49 mm
- Organ weight, heart ([4]; 500 mM NR): 0.23 g
- Organ weight, liver ([4]; 500 mM NR): 0.72 g
- Pectoralis major length ([4]; 500 mM NR): 17.51^b mm
- Pectoralis major maximum thickness ([4]; 500 mM NR): 2.36^a,b mm
- Pectoralis major weight ([4]; 500 mM NR): 0.16^b g
- Pectoralis major width ([4]; 500 mM NR): 5.32^b mm
- Body weight ([4]; 1,000 mM NR): 45.97 g
- Chest circumference ([4]; 1,000 mM NR): 6.6^b cm
- Crown to rump length ([4]; 1,000 mM NR): 88.20^b mm
- Head circumference ([4]; 1,000 mM NR): 5.7^b cm
- Head length ([4]; 1,000 mM NR): 17.98 mm
- Head width ([4]; 1,000 mM NR): 15.69 mm
- Organ weight, heart ([4]; 1,000 mM NR): 0.24 g
- Organ weight, liver ([4]; 1,000 mM NR): 0.67 g
- Pectoralis major length ([4]; 1,000 mM NR): 17.44^b mm
- Pectoralis major maximum thickness ([4]; 1,000 mM NR): 2.64^b mm
- Pectoralis major weight ([4]; 1,000 mM NR): 0.15^b g
- Pectoralis major width ([4]; 1,000 mM NR): 5.61^b mm

Source: US11571413B2, “Nicotinamide riboside treatments of domesticated meat animals” (Kansas State University Research Foundation, priority 2017, dated 2023)
